Results on 16 molecules are retold here after ChEMBL document CHEMBL3879904, “Selective sphingosine 1 phosphate receptor modulators and methods of chiral synthesis” (2013).

Data set [1] in a line: Toxicity in Sprague-Dawley rat assessed as dose required to produce 10% increase in lung to terminal body weight ratio administered orally via gavage for 5 to 14 days measured 24 hrs post last dose. To be noted: in vivo, po.
Another data set has as its system Rattus norvegicus. Nature of the data set: Antiinflammatory activity in Sprague-Dawley rat assessed as dose required to produce 50% lymphopenia administered orally via gavage for 3 to 5 days measured 24 hrs post last dose. It is filed as functional.
Data set [2] can be described thus: Therapeutic index, ratio of dose required to produce 10% increase in lung to terminal body weight ratio administered for 14 days to dose required to produce 50% lymphopenia in Sprague-Dawley rat. To be noted: in vivo, read-out: TI.
The target of data set [3] is Sphingosine 1-phosphate receptor 1 (Homo sapiens, UniProt P21453). Put plainly: Agonist activity at human S1P1 expressed in CRE-bla CHOK1 cells assessed as inhibition of forskolin-induced cAMP formation preincubated for 4 hrs followed by FRET-based beta-lactamase fluorescent substrate addition measured after 2 hrs. Format: functional, cell-based, CHO-K1.
Sequence of Sphingosine 1-phosphate receptor 1 (P21453 whole entry): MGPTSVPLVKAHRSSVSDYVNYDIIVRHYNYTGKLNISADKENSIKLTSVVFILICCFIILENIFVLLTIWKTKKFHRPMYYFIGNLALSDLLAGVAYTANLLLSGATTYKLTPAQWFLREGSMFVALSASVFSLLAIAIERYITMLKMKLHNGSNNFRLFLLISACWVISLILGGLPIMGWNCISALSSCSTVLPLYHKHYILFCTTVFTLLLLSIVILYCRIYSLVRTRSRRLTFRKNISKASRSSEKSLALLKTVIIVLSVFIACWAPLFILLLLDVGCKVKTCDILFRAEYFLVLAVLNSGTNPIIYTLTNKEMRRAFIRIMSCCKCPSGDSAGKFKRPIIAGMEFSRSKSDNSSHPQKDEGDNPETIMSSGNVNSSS
Data set [4] deals with Mus musculus. Nature of the data set: Antiinflammatory activity in Influenza A virus (A/WSN/33) infected C57Bl/6 mouse model assessed as suppression of inflammatory cell infiltration into lungs at 0.5 mg/kg administered intratracheally 1 hr post viral infection measured after 48 hrs relative to control. Format: functional. To be noted: C57Bl/6, inhaled or nasal.
Data set [5] can be described thus: Oral bioavailability in Sprague-Dawley rat at 2 mg/kg administered via gavage by HPLC-LC/MS/MS method. It is filed as ADME, organism-based. To be noted: in vivo.
In data set [6] the test system is Mus musculus. Nature of the data set: Antiinflammatory activity in C57BL6 mouse assessed as induction of lymphopenia by measuring CD4 or CD8-positive T cell levels at 1 mg/kg, po administered via gavage measured over 24 hrs by FACS analysis relative to control. It is filed as functional. Background: A flow cytometer gives signals particle by particle.

For `CC(C)Oc1ccc(-c2nc(-c3cccc4c3CC[C@@H]4NC(=O)N3CC(O)C3)no2)cc1C#N`, the Activity turned out to be 11.3 mg/kg in data set [1] and 2 mg/kg in the data set with Rattus norvegicus.

For the molecule `CC(C)Oc1ccc(-c2nc(-c3cccc4c3CC[C@H]4NS(=O)(=O)CCO)no2)cc1C#N`, the Activity was 1.1 mg/kg in data set [1] and 0.07 mg/kg in the data set with Rattus norvegicus.

Turning to `CC(C)Oc1ccc(-c2nc(-c3cccc4c3CC[C@@H]4NS(=O)(=O)CCO)no2)cc1C#N`, the Activity in data set [1] was 5 mg/kg; in the data set with Rattus norvegicus, 0.5 mg/kg.

Turning to `CC(C)Oc1ccc(-c2nc(-c3cccc4c3CC[C@@H]4N)no2)cc1C#N`, the Activity in data set [1] was found to be 2 mg/kg; with Rattus norvegicus, 0.1 mg/kg.

Consider `CC(C)Oc1ccc(-c2nc(-c3cccc4c3CC[C@H]4N)no2)cc1C#N.Cl`, for which the Activity in data set [1] is 0.2 mg/kg; in the data set with Rattus norvegicus, 0.1 mg/kg. Besides, the selectivity ratio at 336 h in data set [2] was found to be 2.

By EC50 is commonly meant the concentration needed to bring the measured effect to its halfway point. Regarding `CC(C)Oc1ccc(-c2nc(-c3cccc4c3CC[C@@H]4NC(=O)N(C)C)no2)cc1C#N`, the EC50 in data set [3] was 0.05 to 0.5 nM.

As for `CC(C)Oc1ccc(-c2nc(-c3cccc4c3CC[C@H]4NC(=O)N3CC(O)C3)no2)cc1C#N`, the figures for the Activity (in data set [1]; in the data set with Rattus norvegicus) were 21.3 mg/kg and 0.9 mg/kg, respectively.

On to `CC(C)Oc1ccc(-c2nc(-c3cccc4c3CC[C@H]4NCC(=O)N(C)C)no2)cc1C#N.Cl`, for which the results for the Activity (in data set [1]; in the data set on Rattus norvegicus) were 5.5 mg/kg and 0.4 mg/kg, respectively.

`CC(C)Oc1ccc(-c2nc(-c3cccc4c3CC[C@@H]4NCC(=O)N(C)C)no2)cc1C#N`: the Activity (in data set [1]; in the data set with Rattus norvegicus) was 0.3 mg/kg throughout.

On to `CC(C)Oc1ccc(-c2nc(-c3cccc4c3CC[C@H]4NCC(=O)N3CCOCC3)no2)cc1C#N`, for which, in data set [3], the EC50 lay within 0.05 to 0.5 nM.

In the case of `COCCS(=O)(=O)N[C@H]1CCc2c(-c3noc(-c4ccc(OC(C)C)c(C#N)c4)n3)cccc21`, the Activity in data set [1] was found to be 5 mg/kg; with Rattus norvegicus it was 0.25 mg/kg.

With `COCCS(=O)(=O)N[C@@H]1CCc2c(-c3noc(-c4ccc(OC(C)C)c(C#N)c4)n3)cccc21`, the Activity in data set [1] came to 2.1 mg/kg; with Rattus norvegicus, 0.07 mg/kg.

Take `CC(C)Oc1ccc(-c2nc(-c3cccc4c3CC[C@H]4NC(=O)c3ccc(Br)cc3)no2)cc1C#N`: the EC50 in data set [3] was over 5 nM.

Broadly, the inhibition in vivo is the percentage by which the read-out fell short of the control. Take `CC(C)Oc1ccc(-c2nc(-c3cccc4c3CC[C@H]4NCCO)no2)cc1C#N`: the Activity came out at 2.8 mg/kg in data set [1] and 0.15 mg/kg in the data set with Rattus norvegicus. In addition, the inhibition in vivo at 0.5 mg/kg in the data set with Mus musculus [4] turned out to be 40%.

A word on the bioavailability: it is dose-corrected exposure relative to a reference, in per cent. In turn, `CCOc1ccc(-c2nc(-c3cccc4c3CCC4NCCO)no2)cc1OCC` (racemic) displayed a bioavailability in data set [5] of 21%. The AUEC with Mus musculus [6] is 116%.

Turning to `CC(C)Oc1ccc(-c2nc(-c3cccc4c3CC[C@@H]4NCCO)no2)cc1C#N` [OZANIMOD], the Activity is 2.7 mg/kg in data set [1] and 0.15 mg/kg with Rattus norvegicus.
